For this experiment, the target named is T1, Lysosomal acid glucosylceramidase (Bos taurus, UniProt Q2KHZ8).
T1 sequence (Q2KHZ8 whole entry): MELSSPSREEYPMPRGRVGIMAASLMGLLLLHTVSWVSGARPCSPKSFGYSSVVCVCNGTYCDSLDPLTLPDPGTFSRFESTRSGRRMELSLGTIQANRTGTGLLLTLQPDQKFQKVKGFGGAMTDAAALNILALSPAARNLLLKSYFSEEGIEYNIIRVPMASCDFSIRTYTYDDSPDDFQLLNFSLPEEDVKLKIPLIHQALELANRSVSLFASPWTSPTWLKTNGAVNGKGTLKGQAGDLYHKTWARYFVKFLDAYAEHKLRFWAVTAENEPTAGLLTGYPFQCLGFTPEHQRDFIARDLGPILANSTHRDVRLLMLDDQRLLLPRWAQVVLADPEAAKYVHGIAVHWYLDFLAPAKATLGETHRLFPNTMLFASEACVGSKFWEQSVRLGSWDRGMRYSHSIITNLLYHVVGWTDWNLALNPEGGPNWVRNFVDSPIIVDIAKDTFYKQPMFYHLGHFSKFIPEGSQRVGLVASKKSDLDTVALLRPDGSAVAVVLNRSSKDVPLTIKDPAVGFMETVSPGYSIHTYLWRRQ
Nature of the experiment: Inhibition of bovine liver beta-glucosidase.

This is an account of results in BindingDB's records for doi:10.1016/j.bmc.2013.03.004 (University of Oxford, 2013).

The structures appear in SMILES notation.

On to `OC[C@H](O)[C@@H]1NC[C@@H]1O`, for which the 50% inhibitory concentration (IC50) (as a rule, the concentration at which inhibition is half-maximal) was determined as 997 µM.
